From patent US7329423B2, “Compositions comprising thylakoids useful in the modulation of inflammation process” (Purecell Technologies Inc., priority 2001, dated 2008)

Columns and labels:
[1] = tested on: TPA-induced inflammation of mouse ears; assay: Potentiation of budesonide in TPA-induced mouse ear inflammation (Experiment 10); format: in vivo; details: BALB/C mice, 24 h
Method: Mice (BALB/C) were kept in individual cages, at 20° C. and 55% relative humidity with 12-h light/12-h dark cycle, in a facility that met the Canadian Council on Animal Care (C.C.A.C.) guidelines. The animals were subjected to an 18-hour starving period prior to treatments. […] of mice were treated in the following manner: • (Treatment-1) No application of cream (n=3); • (Treatment-2) Neutral base cream (n=3); • (Treatment-3) Budesonide (0.1%) in neutral base cream (n=3); • (Treatment-4) Budesonide (0.01%) in neutral base cream (n=3); • (Treatment-5) Budesonide (0.01%)+thylakoid extract (0.05%) in neutral base cream (n=3). All treatments were applied 4 and 8 hours following the inflammatory stress (post-treatment) at a dose of 2 μl/cm^2. Animals were kept in the dark for the duration of the treatments. Prior to treatment, mouse ears were subjected to an inflammatory stress by a topical application of phorbol 12-myristate 13-acetate (TPA) (Sigma Chemicals Co.). 20 μL of TPA (0.2 μg/μL) in an acetone solution was applied (Griswold et al., 1998). The right ear of each mouse was treated with TPA whereas the left ear served as the unstressed control. After 24 hours, the mice were sacrificed and a punch of 6 mm in diameter of both the left and right ears was sampled. Ear punch thickness was measured by an electronic digital caliper 0.01 mm (Traceable).

[2] = tested on: TNBS-induced colonic damage in rat intestine; assay: Potentiation of mesalamine in TNBS-stressed rat intestine (Experiment 11); format: in vivo; details: Wistar rats, mesalamine 57 mg/kg with or without extract 2 mg/kg in the intestinal lumen 24 and 48 h before TNBS
Method: Male Wistar rats (Charles River Laboratories, Montreal) were kept in individual cages, at 20° C. and 55% relative humidity with 12-h light/12-h dark cycle, in a facility that met the Canadian Council on Animal Care (C.C.A.C.) guidelines. The rats were subjected to a 24-hour starving period prior to inflammatory stress induction. Four groups of rats were treated in the following manner: • (Treatment-1) Non-stressed control (n=3); • (Treatment-2) 2,4,6-Trinitrobenzenesulfonic acid (inflammatory agent) in the intestinal lumen (n=3); • (Treatment-3) Mesalamine (5-aminosalicyclic acid; NSAID) (57 mg/kg) administered directly in the intestinal lumen 24 and 48 hours prior to administration of the stress agent (n=3) • (Treatment4) Thylakoid extract (0.05%) (2 mg/kg)+mesalamine (57 mg/kg) administered directly in the intestinal lumen 24 and 48 hours prior to administration of the stress agent (n=3). Twenty-four hours later, the rats were sacrificed and a 10 cm excision of the intestine was sampled.

CCCC1O[C@@H]2C[C@H]3[C@@H]4CCC5=CC(=O)C=C[C@]5(C)[C@H]4[C@@H](O)C[C@]3(C)[C@]2(C(=O)CO)O1 (stereo partly drawn) [Budesonide, budesonide]
decrease of ear punch thickness ([1]; budesonide 0.01% in neutral base cream 4 and 8 h after TPA): 32.6%
decrease of ear punch thickness compared to the untreated control (Treatment-1) ([1]; budesonide 0.1% in neutral base cream 4 and 8 h after TPA): 58.2%

Nc1ccc(O)c(C(=O)O)c1 [mesalamine, 5-aminosalicyclic acid]
macroscopic colonic damage score (scale 0-10) [2]: 4.0
